Some test systems named below: HS 578T breast; SK-MEL-5 melanoma; MDA-MB-231 breast; UO-31 renal; OVCAR-4 ovarian; NCI-H23 lung; BT-549 breast; EKVX NSCLC; HCC-2998 colon.
Holding throughout (assay): DTP human tumour cell line panel, 48 h

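Where inhibition never reached the appropriate level, the endpoint shown equals the highest concentration tested. Otherwise, values were interpolated linearly from a five-concentration, 48-hour dose response in 96-well plates. GI50 marks 50% less growth. TGI denotes the concentration required for complete inhibition of growth.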 Where a SMILES comes first, the peptide text is derived from it. [ ]: non-standard residue; d: D form. The star is where a group is joined. Cbz = O=C(OCc1ccccc1)*; Boc = CC(C)(C)OC(=O)*; Aib = CC(C)(N)C(=O)O; OBn = c1ccc(CO*)cc1; OtBu = CC(C)(C)O*; βAla = NCCC(=O)O

As usually defined, the TGI is the concentration giving total growth inhibition. Consider `Nc1nc2c(ncn2C2C=CC(CO)O2)c(=O)[nH]1` (configuration not stated), for which the TGI in the test with HS 578T breast, in the test on SK-MEL-5 melanoma, in the test on MDA-MB-231 breast, with UO-31 renal, in the test on OVCAR-4 ovarian and with NCI-H23 lung was above 100 µM throughout. The TGI in the test with BT-549 breast was above 100 µM.
For `COC(=O)C1(C(=O)OC)N=C(C)OC1C(C)C` (configuration not stated), the TGI in the test with SK-MEL-5 melanoma, in the test on EKVX NSCLC, with HCC-2998 colon, with UO-31 renal, with OVCAR-4 ovarian and in the test with NCI-H23 lung was above 100 µM throughout. In the test with BT-549 breast, the TGI is above 100 µM.
As for `CCCCSc1n/c(=C\c2ccc(N(C)C)cc2)c2nnnn12`, the TGI in the test with HS 578T breast, with EKVX NSCLC, in the test with HCC-2998 colon, with MDA-MB-231 breast, with UO-31 renal and in the test on OVCAR-4 ovarian was above 100 µM throughout. Besides, the total growth inhibition concentration (TGI) with NCI-H23 lung and in the test on BT-549 breast was above 100 µM in each case.
For `O=C(NNC(=S)Nc1ccccc1)c1csc(NC(=S)NC2CCCCC2)n1`, the total growth inhibition concentration (TGI) with SK-MEL-5 melanoma is 38.8 µM; in the test with EKVX NSCLC, above 100 µM; in the test with HCC-2998 colon, above 100 µM; in the test on MDA-MB-231 breast, above 100 µM; with UO-31 renal, 79.6 µM; in the test on NCI-H23 lung, above 100 µM. In the test on BT-549 breast, this compound gave a TGI above 100 µM.
In the case of `CC#CC(O)(C(=O)OC1CCCN(C)C1)C1=CC=CCC1` (configuration not stated), the TGI with HS 578T breast, in the test on SK-MEL-5 melanoma, in the test with EKVX NSCLC, in the test on HCC-2998 colon, with MDA-MB-231 breast and with UO-31 renal was above 100 µM each time. In addition, the TGI in the test with OVCAR-4 ovarian and in the test on NCI-H23 lung was above 100 µM each time.
Regarding `CCOC(=O)C(O)(NC(C)=O)C(F)(F)F` (configuration not stated), the TGI in the test on HS 578T breast, with SK-MEL-5 melanoma, with EKVX NSCLC, with HCC-2998 colon, in the test with UO-31 renal and in the test with OVCAR-4 ovarian was above 100 µM in each case. Besides, the TGI with NCI-H23 lung and in the test with BT-549 breast was above 100 µM each time.
Regarding `O=c1[nH]nc(Cc2ccc(Cl)cc2)n1O`, the TGI in the test on HS 578T breast, with SK-MEL-5 melanoma, in the test on EKVX NSCLC, with HCC-2998 colon, in the test with MDA-MB-231 breast and in the test on UO-31 renal was above 100 µM throughout. For the same compound, the TGI in the test on OVCAR-4 ovarian and in the test on NCI-H23 lung was above 100 µM each time.
One may read the GI50 as the concentration that inhibits growth by half. Take `COc1cccc(-c2nc3sccn3c2-c2ccnc(NCCNC(=O)Nc3cccc(C(F)(F)F)c3)n2)c1`: the GI50 was 3.15 µM in the test on HS 578T breast; 4.27 µM in the test with SK-MEL-5 melanoma; 3.55 µM in the test with EKVX NSCLC; 3.75 µM in the test with HCC-2998 colon; 3.47 µM in the test with MDA-MB-231 breast; 2.88 µM in the test with UO-31 renal. For the same compound, the GI50 in the test on OVCAR-4 ovarian was 3.78 µM; in the test with NCI-H23 lung it was 3.42 µM. Further, the TGI in the test with HS 578T breast came out at 29 µM; with SK-MEL-5 melanoma it was 15.9 µM; in the test on EKVX NSCLC it was 59.6 µM; in the test on HCC-2998 colon it was 18.7 µM; in the test with MDA-MB-231 breast, 12 µM; in the test on UO-31 renal it was 24.8 µM. For the same compound, the TGI with OVCAR-4 ovarian stood at 34.1 µM; in the test with NCI-H23 lung it was 76.9 µM.
With `NC(=O)CC(Nc1ncc2c(n1)-c1ccccc1OC2)C(=O)O` (configuration not stated), the total growth inhibition concentration (TGI) with HS 578T breast, in the test with SK-MEL-5 melanoma, with EKVX NSCLC, with MDA-MB-231 breast, in the test with UO-31 renal and with OVCAR-4 ovarian was above 100 µM in each case. Further, the total growth inhibition concentration (TGI) with NCI-H23 lung is above 100 µM.
As for `COc1ccc(NC2Oc3cc4c(cc3C(c3cc(OC)c(O)c(OC)c3)C2C)OCO4)cc1` (configuration not stated), the TGI was 4.34 µM with SK-MEL-5 melanoma; 21.7 µM in the test on HCC-2998 colon; 11 µM in the test on MDA-MB-231 breast; 31.3 µM with UO-31 renal; above 100 µM with OVCAR-4 ovarian; above 100 µM with NCI-H23 lung. Besides, in the test on BT-549 breast, the TGI was above 100 µM.
As for `O=C1OS2(OCc3cccc4cccc2c34)c2ccccc21` (configuration not stated), the concentration for total growth inhibition (TGI) in the test on SK-MEL-5 melanoma, in the test with EKVX NSCLC, with HCC-2998 colon, with MDA-MB-231 breast, in the test with UO-31 renal and in the test on OVCAR-4 ovarian was above 100 µM in each case. The TGI in the test with NCI-H23 lung and in the test on BT-549 breast was above 100 µM each time.
For `CC(C)(C)OC(=O)CC(NC(=O)OC(C)(C)C)C(=O)NC(CCCCNC(=O)OCc1ccccc1)C(=O)NC(C)(C)C(=O)NCCC(=O)OCc1ccccc1` (configuration not stated) (Boc-D(OtBu)K(Cbz)[Aib][βAla]-OBn; configuration not given here), the TGI in the test on HS 578T breast, in the test on SK-MEL-5 melanoma, in the test with EKVX NSCLC, with MDA-MB-231 breast, with UO-31 renal and with OVCAR-4 ovarian was above 100 µM throughout. For the same compound, the total growth inhibition concentration (TGI) in the test with NCI-H23 lung and in the test with BT-549 breast was above 100 µM in each case.
With `COC(=O)c1cncc2c1CC1C3(C(=O)OC)C=NC(C4C(CO)=CCC43)C21C` (configuration not stated), the total growth inhibition concentration (TGI) in the test with HS 578T breast, in the test on SK-MEL-5 melanoma, with EKVX NSCLC, in the test with HCC-2998 colon, in the test on MDA-MB-231 breast and in the test with UO-31 renal was above 100 µM in each case. The TGI in the test on OVCAR-4 ovarian and with NCI-H23 lung was above 100 µM each time.
For `O=C(c1ccco1)N(C(=S)OCc1ccccn1)c1ccccc1`, the TGI in the test with HS 578T breast, in the test on SK-MEL-5 melanoma, with EKVX NSCLC, with MDA-MB-231 breast, with UO-31 renal and in the test on NCI-H23 lung was above 100 µM throughout. This compound also displayed a TGI in the test with BT-549 breast above 100 µM.
For `N#CCCN(CCCN(C(=O)Nc1ccccc1)c1ccccc1)C(=O)Nc1ccccc1`, the TGI in the test on SK-MEL-5 melanoma, in the test with EKVX NSCLC, with HCC-2998 colon, in the test on MDA-MB-231 breast, with UO-31 renal and with OVCAR-4 ovarian was above 100 µM in each case. Further, the TGI in the test on NCI-H23 lung and in the test with BT-549 breast was above 100 µM in each case.

These data come from PubChem BioAssay (NCI).
